Measured values as given in US10738056B2 (Aduro BioTech, Inc., priority 2017, dated 2020).

Legend:
[1] = target: Human cGAS amino acids 155-522 (Homo sapiens (Human), UniProt Q8N884); experiment: cGAS biochemical activity assay (ATP remaining, Kinase-Glo Max luminescence); settings: human cGAS 155-522, ATP remaining (Kinase-Glo Max); read-out: cGAS IC50
[2] = system: cGAS/STING pathway in THP1 cells; experiment: THP1 cell-based cGAS/STING pathway activity assay (IRF-3-linked luciferase reporter); settings: Homo sapiens, THP-1
Excerpt: A cellular assay can be used to assess the compounds of the invention for their ability to inhibit the cGAS/STING pathway. Cells that express a luciferase-based reporter that is linked to IRF-3 activation are used to determine response as a function of compound concentration. Such an assay is described in Vincent et al., Nature Communications 2017, 8(1):750, doi: 10.1038/s41467-017-00833-9.
A cellular assay can be used to assess the compounds of the invention for their ability to inhibit the cGAS/STING pathway. Cells that express a luciferase-based reporter that is linked to IRF-3 activation are used to determine response as a function of compound concentration. Such an assay is described in Vincent et al., Nature Communications 2017, 8(1):750, doi: 10.1038/s41467-017-00833-9. Compounds of the invention were assessed using similar assay methods in a THP1 cell assay to generate IC50 values as provided in the following Table 16. In this table, activity level “A” indicates an IC50 value less than 20 μM, “B” indicates an IC50 value between 20 and 100 μM, and “C” indicates an IC50 value above the upper limit of the assay (100 μM), or where an IC50 value could not be generated from the data.

Chain of Human cGAS amino acids 155-522 (Q8N884 157-522): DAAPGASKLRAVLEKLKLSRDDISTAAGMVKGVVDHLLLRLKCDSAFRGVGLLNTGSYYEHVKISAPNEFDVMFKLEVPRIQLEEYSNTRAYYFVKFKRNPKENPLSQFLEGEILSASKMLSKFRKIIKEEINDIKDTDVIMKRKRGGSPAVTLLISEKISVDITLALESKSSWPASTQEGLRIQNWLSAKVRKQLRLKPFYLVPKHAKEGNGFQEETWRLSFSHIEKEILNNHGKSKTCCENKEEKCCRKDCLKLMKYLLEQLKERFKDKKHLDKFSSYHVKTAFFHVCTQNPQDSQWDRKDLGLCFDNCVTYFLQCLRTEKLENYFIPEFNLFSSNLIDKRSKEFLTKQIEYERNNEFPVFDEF

Row | IC50 [1] [µM] | IC50 [2] [µM] | SMILES
1 | < 20 | > 100 | COc1cccc2oc(-c3c(CN(C)C)[nH]c4c(-c5ccccc5)c(C(F)(F)F)nn4c3=O)nc12 [Compound C1109, 5-((dimethylamino)methyl)-6-(4-methoxybenzo[d]oxazol-2-yl)-3-phenyl-2-(trifluoromethyl)pyrazolo[1,5-a]pyrimidin-7(4H)-one]
2 | < 20 | > 100 | COc1cccc2[nH]c(-c3c(C)[nH]c4c(-c5ccccc5)c(C(F)(F)F)nn4c3=O)nc12 [Compound C1018, 6-(4-methoxy-1H-benzo[d]imidazol-2-yl)-5-methyl-3-phenyl-2-(trifluoromethyl)pyrazolo[1,5-a]pyrimidin-7(4H)-one]
3 | 20 to 250 | < 20 | Cc1[nH]c2c(-c3ccccc3)c(C(F)(F)F)nn2c(=O)c1-c1nc2ccccc2n1CC(F)(F)F [Compound C1231, 5-methyl-3-phenyl-6-(1-(2,2,2-trifluoroethyl)-1H-benzo[d]imidazol-2-yl)-2-(trifluoromethyl)pyrazolo[1,5-a]pyrimidin-7(4H)-one]
4 | 20 to 250 | > 100 | CC(=O)N1CCOCC1c1nnc(-c2c(C)[nH]c3c(-c4ccccc4)c(C(F)(F)F)nn3c2=O)o1 (stereo not shown) [Compound D1050, 6-(5-(4-acetylmorpholin-3-yl)-1,3,4-oxadiazol-2-yl)-5-methyl-3-phenyl-2-(trifluoromethyl)pyrazolo[1,5-a]pyrimidin-7(4H)-one]
5 | < 20 | < 20 | CCOc1cccc2oc(-c3c(C)[nH]c4c(-c5ccccc5)c(C(F)(F)F)nn4c3=O)nc12 [Compound C1038, 6-(4-ethoxybenzo[d]oxazol-2-yl)-5-methyl-3-phenyl-2-(trifluoromethyl)pyrazolo[1,5-a]pyrimidin-7(4H)-one]
6 | > 250 | < 20 | Cc1[nH]c2c(-c3ccccc3)c(C(F)(F)F)nn2c(=O)c1-c1nc2c(o1)CCCC2 [Compound C1015, 5-methyl-3-phenyl-6-(4,5,6,7-tetrahydrobenzo[d]oxazol-2-yl)-2-(trifluoromethyl)pyrazolo[1,5-a]pyrimidin-7(4H)-one]
7 | 20 to 250 | > 100 | Cc1[nH]c2c(-c3ccccc3)c(C(F)(F)F)nn2c(=O)c1-c1nnc(C(C)(O)C(F)(F)F)o1 (stereo not shown) [Compound D1008, 5-methyl-3-phenyl-6-(5-(1,1,1-trifluoro-2-hydroxypropan-2-yl)-1,3,4-oxadiazol-2-yl)-2-(trifluoromethyl)pyrazolo[1,5-a]pyrimidin-7(4H)-one]
8 | > 250 | – | COCc1nc(-c2c(C)[nH]c3c(-c4ccccc4)c(C(F)(F)F)nn3c2=O)oc1C1CCCCC1 [Compound C1158, 6-(5-cyclohexyl-4-(methoxymethyl)oxazol-2-yl)-5-methyl-3-phenyl-2-(trifluoromethyl)pyrazolo[1,5-a]pyrimidin-7(4H)-one]
9 | 20 to 250 | – | Cc1[nH]c2c(-c3ccccc3)c(C(F)(F)F)nn2c(=O)c1CC(=O)Nc1cccnc1 [Compound B1008, 2-(5-methyl-7-oxo-3-phenyl-2-(trifluoromethyl)-4,7-dihydropyrazolo[1,5-a]pyrimidin-6-yl)-N-(pyridin-3-yl)acetamide]
10 | 20 to 250 | – | Cc1[nH]c2c(-c3ccccc3)c(C(F)(F)F)nn2c(=O)c1C(=O)Nc1ccnn1C [Compound A1078, 5-methyl-N-(1-methyl-1H-pyrazol-5-yl)-7-oxo-3-phenyl-2-(trifluoromethyl)-4,7-dihydropyrazolo[1,5-a]pyrimidine-6-carboxamide]

The remaining lines, values behind:

Row | SMILES | IC50 [1] [µM] | IC50 [2] [µM]
11 | COc1cccc2oc(-c3c(COCC(F)F)[nH]c4c(-c5ccccc5)c(C(F)(F)F)nn4c3=O)nc12 [Compound C1232, 5-((2,2-difluoroethoxy)methyl)-6-(4-methoxybenzo[d]oxazol-2-yl)-3-phenyl-2-(trifluoromethyl)pyrazolo[1,5-a]pyrimidin-7(4H)-one] | < 20 | 20 to 100
12 | Cc1[nH]c2c(-c3ccccc3)c(C#N)nn2c(=O)c1-c1nc2cnccc2o1 [Compound C1275, 5-methyl-6-(oxazolo[4,5-c]pyridin-2-yl)-7-oxo-3-phenyl-4,7-dihydropyrazolo[1,5-a]pyrimidine-2-carbonitrile] | < 20 | > 100
13 | Cc1[nH]c2c(-c3ccccc3)c(C(F)(F)F)nn2c(=O)c1C(=O)Nc1cnn(C)c1 [Compound A1077, 5-methyl-N-(1-methyl-1H-pyrazol-4-yl)-7-oxo-3-phenyl-2-(trifluoromethyl)-4,7-dihydropyrazolo[1,5-a]pyrimidine-6-carboxamide] | < 20 | > 100
14 | Cc1[nH]c2c(-c3ccccc3)c(C#N)nn2c(=O)c1-c1ccccc1 [Compound C1273, 5-methyl-7-oxo-3,6-diphenyl-4,7-dihydropyrazolo[1,5-a]pyrimidine-2-carbonitrile] | < 20 | < 20
15 | Cc1[nH]c2c(-c3ccccc3)c(C(F)(F)F)nn2c(=O)c1C(=O)NS(=O)(=O)c1ccccn1 [Compound A1120, 5-methyl-7-oxo-3-phenyl-N-(pyridin-2-ylsulfonyl)-2-(trifluoromethyl)-4,7-dihydropyrazolo[1,5-a]pyrimidine-6-carboxamide] | < 20 | > 100
16 | CSc1cccc2oc(-c3c(C)[nH]c4c(-c5ccccc5)c(C#N)nn4c3=O)nc12 [Compound C1204, 5-methyl-6-(4-(methylthio)benzo[d]oxazol-2-yl)-7-oxo-3-phenyl-4,7-dihydropyrazolo[1,5-a]pyrimidine-2-carbonitrile] | < 20 | > 100
17 | COc1ccc(CO)c2oc(-c3c(C)[nH]c4c(-c5ccccc5)c(C(F)(F)F)nn4c3=O)nc12 [Compound C1224, 6-(7-(hydroxymethyl)-4-methoxybenzo[d]oxazol-2-yl)-5-methyl-3-phenyl-2-(trifluoromethyl)pyrazolo[1,5-a]pyrimidin-7(4H)-one] | < 20 | > 100
18 | Cc1[nH]c2c(-c3ccccc3)c(C(F)(F)F)nn2c(=O)c1C(=O)Nc1nc(C(C)C)co1 [Compound A1048, N-(4-isopropyloxazol-2-yl)-5-methyl-7-oxo-3-phenyl-2-(trifluoromethyl)-4,7-dihydropyrazolo[1,5-a]pyrimidine-6-carboxamide] | 20 to 250 | 20 to 100
19 | COCc1coc(-c2c(C)[nH]c3c(-c4ccccc4)c(C(F)(F)F)nn3c2=O)n1 [Compound C1108, 6-(4-(methoxymethyl)oxazol-2-yl)-5-methyl-3-phenyl-2-(trifluoromethyl)pyrazolo[1,5-a]pyrimidin-7(4H)-one] | < 20 | > 100
20 | COc1cccc2oc(-c3c(OCCN(C)C)[nH]c4c(-c5ccccc5)c(C(F)(F)F)nn4c3=O)nc12 [Compound C1067, 5-(2-(dimethylamino)ethoxy)-6-(4-methoxybenzo[d]oxazol-2-yl)-3-phenyl-2-(trifluoromethyl)pyrazolo[1,5-a]pyrimidin-7(4H)-one] | > 250 | –
21 | Cc1[nH]c2c(-c3ccccc3)c(C(F)(F)F)nn2c(=O)c1C(=O)NC1CCOCC1 [Compound A1025, 5-methyl-7-oxo-3-phenyl-N-(tetrahydro-2H-pyran-4-yl)-2-(trifluoromethyl)-4,7-dihydropyrazolo[1,5-a]pyrimidine-6-carboxamide] | 20 to 250 | –
22 | Cc1[nH]c2c(-c3ccccc3)c(C(F)(F)F)nn2c(=O)c1N1Cc2ccc(N)cc2C1=O [Compound C1217, 6-(6-amino-1-oxoisoindolin-2-yl)-5-methyl-3-phenyl-2-(trifluoromethyl)pyrazolo[1,5-a]pyrimidin-7(4H)-one] | 20 to 250 | –
23 | COc1cccc(NC(=O)c2c(C)[nH]c3c(-c4ccccc4)c(SC)nn3c2=O)c1 [Compound A1122, N-(3-methoxyphenyl)-5-methyl-2-(methylthio)-7-oxo-3-phenyl-4,7-dihydropyrazolo[1,5-a]pyrimidine-6-carboxamide] | 20 to 250 | –
24 | Cc1[nH]c2c(-c3ccccc3)c(C(F)(F)F)nn2c(=O)c1C(=O)Nc1ccn(C2CCCCC2)n1 [Compound A1041, N-(1-cyclohexyl-1H-pyrazol-3-yl)-5-methyl-7-oxo-3-phenyl-2-(trifluoromethyl)-4,7-dihydropyrazolo[1,5-a]pyrimidine-6-carboxamide] | 20 to 250 | –
25 | Cc1[nH]c2c(-c3ccccc3)c(C(F)(F)F)nn2c(=O)c1-c1nnc(-c2cccnc2O)o1 [Compound D1067, 6-(5-(2-hydroxypyridin-3-yl)-1,3,4-oxadiazol-2-yl)-5-methyl-3-phenyl-2-(trifluoromethyl)pyrazolo[1,5-a]pyrimidin-7(4H)-one] | < 20 | –
26 | Cc1[nH]c2c(-c3ccccc3)c(C(F)(F)F)nn2c(=O)c1-c1nnc(C2CCCCC2)s1 [Compound D1006, 6-(5-cyclohexyl-1,3,4-thiadiazol-2-yl)-5-methyl-3-phenyl-2-(trifluoromethyl)pyrazolo[1,5-a]pyrimidin-7(4H)-one] | < 20 | –
27 | Cc1[nH]c2c(-c3ccccc3)c(C(F)(F)F)nn2c(=O)c1C(=O)Nc1[nH]nc(C(F)(F)F)c1C1CCCC1 [Compound A1061, N-(4-cyclopentyl-3-(trifluoromethyl)-1H-pyrazol-5-yl)-5-methyl-7-oxo-3-phenyl-2-(trifluoromethyl)-4,7-dihydropyrazolo[1,5-a]pyrimidine-6-carboxamide] | 20 to 250 | –
